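Growth conditions: 96-well plates. Treatment: test compound, 48 hours, 5 concentrations. Analysis: linear interpolation between bracketing concentrations; unreached endpoints set to highest concentration. The concentration for 50% growth inhibition is given as GI50. TGI: total growth inhibition.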

Results on 12 compounds are retold here after PubChem BioAssay (NCI).

Test in all cases: NCI-60 cell line screen, 48 h
Test [1] has as its system ACHN renal.
In test [2] the test system is KM12 colon.
Test [3] relates to M14 melanoma.
For test [4], the system named is MDA-N.
The test system of test [5] is MOLT-4 leukemia.
For test [6], the system named is PC-3 prostate.
For test [7], the system named is SF-268 CNS.
In test [8] the test system is SF-295 CNS.
In test [9] the test system is SK-OV-3 ovarian.
The test system of test [10] is SR leukemia.
For test [11], the system named is BT-549 breast.
Test [12] deals with SK-MEL-2 melanoma.

With `O=[N+]([O-])c1c2nc3n(c2cc2c1nc1n2CCC1)CCC3`, the TGI in test [1], in [2], in test [3], in [4], in test [5] and in [6] was over 100 µM in each case. For the same compound, the TGI in test [7], in [8], in [9] and in test [10] was over 100 µM in each case.
For the compound `O=C(OCc1ccccc1)N1CCN(C(=O)OCc2ccccc2)CCN(C(=O)OCc2ccccc2)CCN(C(=O)OCc2ccccc2)CCN(C(=O)OCc2ccccc2)CC1`, the TGI in test [1], in [11], in test [2], in test [3], in test [4] and in test [5] was over 100 µM throughout. Further, the TGI in test [6], in [8], in test [12] and in [9] was over 100 µM throughout.
As for `Clc1ncc(Cl)c(Cl)n1`, the TGI in [1] turned out to be 3.63 µM; in test [2] it was 22.9 µM; in test [3], 10.6 µM; in test [4], 11 µM; in test [5], 4.31 µM; in test [6] it was 5.64 µM. The TGI is 20.5 µM in [7]; 26.6 µM in test [8]; 6.08 µM in test [12]; 14.3 µM in test [9]; 5.62 µM in test [10].
Take `NC(=O)CC(N=C1C(=O)OC(C(O)CO)C1=NC(CC(N)=O)C(=O)O)C(=O)O` (stereo not drawn): the TGI in test [1], in [2], in test [3], in test [4], in [5] and in test [6] was over 100 µM in each case. The TGI in test [7], in [8], in test [12], in test [9] and in [10] was over 100 µM throughout.
Turning to `C=C1C(=O)O[C@@H]2[C@H](O)[C@@H](C)[C@@H]3C=CC(=O)[C@@]3(C)[C@H](OC(=O)C=C(C)C)[C@H]12`, the TGI in [2] is 3.78 µM; in test [5], 0.725 µM; in test [7], 3.59 µM; in test [8], 7.27 µM; in test [12], 2.84 µM; in test [9], 7.91 µM.
For the compound `C[C@]1(O)O[C@@H]2OCC[C@@H]2C2=C1C(=O)c1ccccc1C2=O`, the TGI is 31.7 µM in test [1]; 29.8 µM in test [2]; 24.1 µM in [3]; 19.1 µM in test [4]; over 100 µM in [5]; 54.8 µM in test [6]. For the same compound, the TGI stood at 26.3 µM in test [7]; 35.8 µM in [8]; 32 µM in test [12]; 45.6 µM in test [9]; 45.5 µM in [10].
For `O=C1CCCC2=C1CC1=C(CCCC1=O)N2c1ccccc1`, the TGI in test [1], in test [11], in test [2], in [3], in test [5] and in [6] was over 100 µM each time. Besides, the TGI in test [7], in test [9] and in [10] was over 100 µM in each case.
As to `NC(=O)c1nnsc1NC=O`, the TGI in test [1], in test [2], in [3], in test [4], in test [5] and in test [6] was over 100 µM in each case. Also, the TGI in test [7], in test [8], in [12], in test [9] and in test [10] was over 100 µM in each case.
Consider `NC1CC(=O)c2sccc21` (stereo not drawn), for which the TGI in [1], in test [11], in [2], in test [3], in [5] and in test [6] was over 100 µM throughout. Further, the TGI in test [7] is over 100 µM; in test [8], over 100 µM; in test [12], 79.3 µM; in test [9], over 100 µM; in [10], over 100 µM.
In the case of `CSc1nc2c(=O)n(-c3ccccc3)c(=S)n(-c3ccccc3)c2s1`, the TGI in [1], in test [2], in test [3], in test [4], in test [5] and in [6] was over 100 µM throughout. For the same compound, the TGI in test [7], in [8], in test [12], in test [9] and in test [10] was over 100 µM throughout.
For the compound `Oc1ccc(C#CCOc2ccccc2)cc1CNCCN(Cc1ccccn1)Cc1ccccn1`, the GI50 in test [1] was 1.16 µM; in test [2] it was 1.28 µM; in test [5], 2 µM; in test [6], 0.799 µM; in test [7], 1.37 µM; in [8] it was 0.552 µM. Also, the GI50 in test [12] was 2.08 µM; in [9], 0.944 µM. Moreover, the TGI in test [1] stood at 2.38 µM; in test [2], 2.91 µM; in [5], 5.56 µM; in test [6], 4.06 µM; in test [7], 4.29 µM; in test [8], 1.89 µM. Also, the TGI in test [12] was determined as 4.85 µM; in [9], 2.27 µM.
As to `N#Cc1nc(CCC(c2nc(C#N)c(N)o2)N2C(=O)c3ccccc3C2=O)oc1N` (stereo not drawn), the TGI in test [1], in test [2], in [3], in test [4], in test [5] and in [6] was over 100 µM each time. Further, the TGI in test [7], in test [8], in test [12], in test [9] and in test [10] was over 100 µM each time.
